According to PubChem BioAssay (NCI):
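All cell lines were grown in 96-well plates and treated with compound for 48 hours. TGI: total growth inhibition.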

Legend:
Assay in all cases: NCI anticancer screen, dose series, 48 h
[1] = tested on: 786-0 renal
[2] = tested on: A498 renal
[3] = tested on: A549 NSCLC
[4] = tested on: ACHN renal
[5] = tested on: BT-549 breast
[6] = tested on: CAKI-1 renal
[7] = tested on: CCRF-CEM leukemia
[8] = tested on: COLO 205 colon
[9] = tested on: DU-145 prostate
[10] = tested on: EKVX NSCLC
[11] = tested on: HCT-116 colon
[12] = tested on: HCT-15 colon
[13] = tested on: HL-60(TB) leukemia
[14] = tested on: HOP-62 NSCLC
[15] = tested on: HOP-92 NSCLC
[16] = tested on: HT29 colon
[17] = tested on: IGROV1 ovarian
[18] = tested on: K-562 leukemia
[19] = tested on: KM12 colon
[20] = tested on: LOX IMVI melanoma
[21] = tested on: M14 melanoma
[22] = tested on: MALME-3M melanoma
[23] = tested on: MDA-MB-231 breast
[24] = tested on: MDA-MB-435
[25] = tested on: MDA-N
[26] = tested on: MOLT-4 leukemia
[27] = tested on: NCI-H226 lung
[28] = tested on: NCI-H23 lung
[29] = tested on: NCI-H460 lung
[30] = tested on: NCI-H522 lung
[31] = tested on: NCI/ADR-RES ovarian
[32] = tested on: OVCAR-3 ovarian
[33] = tested on: OVCAR-4 ovarian
[34] = tested on: OVCAR-5 ovarian
[35] = tested on: OVCAR-8 ovarian
[36] = tested on: PC-3 prostate
[37] = tested on: RPMI-8226 leukemia
[38] = tested on: RXF 393 renal
[39] = tested on: SF-268 CNS
[40] = tested on: SF-295 CNS
[41] = tested on: SF-539 CNS
[42] = tested on: SK-MEL-2 melanoma
[43] = tested on: SK-MEL-28 melanoma
[44] = tested on: SK-MEL-5 melanoma
[45] = tested on: SK-OV-3 ovarian
[46] = tested on: SN12C renal
[47] = tested on: SNB-19 CNS
[48] = tested on: SNB-75 CNS
[49] = tested on: SR leukemia
[50] = tested on: SW-620 colon
[51] = tested on: T-47D breast
[52] = tested on: TK-10 renal
[53] = tested on: U251 CNS
[54] = tested on: UACC-257 melanoma
[55] = tested on: UACC-62 melanoma
[56] = tested on: UO-31 renal
[57] = tested on: HCC-2998 colon
[58] = tested on: MCF7 breast

Measured: TGI

O=C(O)c1cccc(SSc2cccc(C(=O)O)c2)c1
81 µM: [7]
not listed: [57] | [58]
> 100 µM: all other assays above

OC1c2[nH]c3ccccc3c2CCN2CCCCC12 (centres undefined)
not listed: [44] | [56]
> 100 µM: all other assays above

Fc1cccc(F)c1C1SCc2nc3cc4ccccc4cc3n21 (centres undefined)
72.9 µM: [17]
45.1 µM: [41]
36.6 µM: [32]
72.3 µM: [48]
55 µM: [12]
81.5 µM: [26]
80.3 µM: [16]
36.7 µM: [33]
73.7 µM: [37]
54.1 µM: [57]
62.4 µM: [7]
69.2 µM: [15]
67.3 µM: [2]
48.6 µM: [18]
not listed: [4] | [13] | [29] | [30] | [47] | [56]
> 100 µM: all other assays above
